Assay results: patent US20230089867A1, “CYCLIC PENTAMER COMPOUNDS AS PROPROTEIN CONVERTASE SUBTILISIN/KEXIN TYPE 9 (PCSK9) INHIBITORS FOR THE TREATMENT OF METABOLIC DISORDER” (Novartis AG, priority 2018, published 2023)

Biological target: human PCSK9 (Homo sapiens, UniProt Q8NBP7)
Assay: PCSK9 ligand binding TR-FRET assay (interference with binding of human PCSK9 to human LDLR)
Settings: for Max % inhibition: PCSK9 FRET assay, efficacy (Amax), 100% = 1 uM unlabeled human PCSK9, 0% = DMSO; for IC50: TR-FRET, human PCSK9 Alexa Fluor 647 / human LDLR extracellular domain-Europium Kryptate, read-out: PCSK9 FRET Assay IC50
Method: The PCSK9 binding of the compounds of the disclosure were measured using a time resolved fluorescence resonance energy transfer (TR-FRET) assay. This time resolved fluorescence resonance energy transfer (TR-FRET) assay measures the ability of a compound of the present disclosure to interfere with the binding of human PCSK9 to human LDLR, providing measures of both potency (IC50) and efficacy (Amax).
These solutions were pipetted into columns 1 and 11 of the compound plate. Threefold serial dilutions were generated in columns 2-10 and 12-20 of the compound plate by transferring 10 uL into 20 uL of DMSO. Columns 21 and 22 of the compound plate were negative controls containing DMSO alone.
An intermediate plate was generated in a Greiner V bottom plate by transferring 8 uL from each well of the master plate into a corresponding well containing 92 uL of assay buffer and mixing thoroughly.
A Proxi plate-low volume assay plate was used for the assay. […] For the positive control wells in columns 23 and 24 of the plate, 5 uL of unlabeled human PCSK9 was added at 4 uM in assay buffer containing 8% DMSO. Following a 30 minute incubation, 5 uL of 4 nM Human LDLR extracellular domain-Europium Kryptate was added and the mixture was incubated for an additional 2 hours.
The FRET ratio (FRET/Europium) was used for calculations.
Data is expressed as percent inhibition: (value−0%)/(100%−0%).

human PCSK9, sequence (Q8NBP7 153-692): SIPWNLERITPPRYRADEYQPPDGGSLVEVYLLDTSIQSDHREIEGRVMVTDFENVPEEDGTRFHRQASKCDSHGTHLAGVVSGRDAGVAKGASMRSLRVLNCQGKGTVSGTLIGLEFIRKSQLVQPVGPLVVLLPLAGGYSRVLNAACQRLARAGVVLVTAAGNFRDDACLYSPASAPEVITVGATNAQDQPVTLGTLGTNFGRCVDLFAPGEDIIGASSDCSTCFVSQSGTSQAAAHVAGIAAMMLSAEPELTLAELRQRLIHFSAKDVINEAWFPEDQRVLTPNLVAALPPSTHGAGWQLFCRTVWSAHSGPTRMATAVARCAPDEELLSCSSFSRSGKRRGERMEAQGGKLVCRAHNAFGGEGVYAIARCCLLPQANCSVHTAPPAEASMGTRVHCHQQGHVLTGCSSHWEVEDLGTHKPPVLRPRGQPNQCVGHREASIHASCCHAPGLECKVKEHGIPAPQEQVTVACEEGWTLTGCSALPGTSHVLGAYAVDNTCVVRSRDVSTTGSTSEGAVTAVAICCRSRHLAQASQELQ
human PCSK9, sequence (Q8NBP7 31-152 partner limits assumed): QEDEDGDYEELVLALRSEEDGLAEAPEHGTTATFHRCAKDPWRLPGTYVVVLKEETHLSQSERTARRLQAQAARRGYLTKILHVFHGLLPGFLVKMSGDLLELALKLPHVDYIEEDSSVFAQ

Row | Structure (SMILES) | Max % inhibition [%] | IC50 [nM]
1 | COC[C@@H]1NC(=O)[C@@H](COC)N(Cc2ccc(Cl)cc2Oc2ccc(-c3cnc(CN(C)C)n3C)cc2)C(=O)C[C@@H](Cc2ccccc2)C(=O)N(C)[C@H]2CCCC[C@@H]2NC(=O)C[C@H](Cc2ccc(Cl)cc2)N(C)C1=O [Compound 8, (4S,7S,10R,14R,16aS,20aS)-14-benzyl-11-(4-chloro-2-(4-(2-((dimethylamino)methyl)-1-methyl-1H-imidazol-5-yl)phenoxy)benzyl)-4-(4-chlorobenzyl)-7,10-bis(methoxymethyl)-5,16-dimethylhexadecahydrobenzo[l][1,4,7,11,14]pentaazacyclooctadecine-2,6,9,12,15(3H)-pentaone] | 101.12 | 8.9
2 | COC[C@@H]1NC(=O)[C@H](C)N(Cc2ccccc2Oc2ccc(-c3cnc(CN(C)C)n3C)cc2)C(=O)C[C@@H](Cc2ccccc2)C(=O)N(C)[C@@H](C)CNC(=O)C[C@H](Cc2ccc(Cl)cc2)N(C)C1=O [Compound 9, (2S,5S,8S,13S,16R)-16-benzyl-8-(4-chlorobenzyl)-1-(2-(4-(2-((dimethylamino)methyl)-1-methyl-1H-imidazol-5-yl)phenoxy)benzyl)-5-(methoxymethyl)-2,7,13,14-tetramethyl-1,4,7,11,14-pentaazacyclooctadecane-3,6,10,15,18-pentaone] | 98.16 | 3.1
3 | COC[C@@H]1NC(=O)[C@H](CCC(=O)OC(C)(C)C)N(Cc2ccc(Cl)cc2Oc2ccc(-c3cnc(CN(C)C)n3C)cc2)C(=O)C[C@@H](Cc2ccccc2)C(=O)N(C)[C@@H](C)CNC(=O)C[C@H](Cc2ccc(Cl)cc2)N(C)C1=O [Compound 10, tert-butyl 3-((2S,5S,8S,13S,16R)-16-benzyl-1-(4-chloro-2-(4-(2-((dimethylamino)methyl)-1-methyl-1H-imidazol-5-yl)phenoxy)benzyl)-8-(4-chlorobenzyl)-5-(methoxymethyl)-7,13,14-trimethyl-3,6,10,15,18-pentaoxo-1,4,7,11,14-pentaazacyclooctadecan-2-yl)propanoate] | 101.88 | 4.3
4 | COC[C@@H]1NC(=O)[C@H](CO)N(Cc2ccc(Cl)cc2Oc2ccc(-c3cnc(CN(C)C)n3C)cc2)C(=O)C[C@@H](Cc2ccccc2)C(=O)N(C)[C@@H](C)CNC(=O)C[C@H](Cc2ccc(Cl)cc2)N(C)C1=O [Compound 11, (2S,5S,8S,13S,16R)-16-benzyl-1-(4-chloro-2-(4-(2-((dimethylamino)methyl)-1-methyl-1H-imidazol-5-yl)phenoxy)benzyl)-8-(4-chlorobenzyl)-2-(hydroxymethyl)-5-(methoxymethyl)-7,13,14-trimethyl-1,4,7,11,14-pentaazacyclooctadecane-3,6,10,15,18-pentaone] | 105.07 | 2.6
5 | COC[C@@H]1NC(=O)[C@@H](C)N(Cc2ccc(Cl)cc2Oc2ccc(-c3cnc(CN(C)C)n3C)cc2)C(=O)C[C@@H](Cc2ccccc2)C(=O)N(C)[C@@H](C)CNC(=O)C[C@H](Cc2ccc(Cl)cc2)N(C)C1=O [Compound 12, (2R,5S,8S,13S,16R)-16-benzyl-1-(4-chloro-2-(4-(2-((dimethylamino)methyl)-1-methyl-1H-imidazol-5-yl)phenoxy)benzyl)-8-(4-chlorobenzyl)-5-(methoxymethyl)-2,7,13,14-tetramethyl-1,4,7,11,14-pentaazacyclooctadecane-3,6,10,15,18-pentaone] | 98.09 | 74.1
6 | COC[C@H]1C(=O)N(C)[C@@H](Cc2ccc(Cl)cc2)CC(=O)NC[C@H](C)N(C)C(=O)[C@H](Cc2ccccc2)CC(=O)N(Cc2ccc(Cl)cc2Oc2ccc(-c3cnc(CN(C)C)n3C)cc2)[C@H]2CC(=O)N1C2=O [Compound 13, (2S,5S,10S,13R,17S)-13-benzyl-16-(4-chloro-2-(4-(2-((dimethylamino)methyl)-1-methyl-1H-imidazol-5-yl)phenoxy)benzyl)-5-(4-chlorobenzyl)-2-(methoxymethyl)-4,10,11-trimethyl-1,4,8,11,16-pentaazabicyclo[15.2.1]icosane-3,7,12,15,19,20-hexaone] | 101.32 | 106
